Laboratory results: publication PMC5419506, “Aromatic amino acids in the cellulose binding domain of Penicillium crustosum endoglucanase EGL1 differentially contribute to the cellulose affinity of the enzyme” (PLoS ONE, 2017)

Molecular target: T1, eGFP-Linker-CBD (CBD domain of Penicillium crustosum endoglucanase EGL1) (Penicillium crustosum, UniProt U6A8H3)
T1 construct: N-terminal eGFP fusion in pET-28a, Ni-column, E. coli BL21(DE3)
T1 sequence (U6A8H3 301-459): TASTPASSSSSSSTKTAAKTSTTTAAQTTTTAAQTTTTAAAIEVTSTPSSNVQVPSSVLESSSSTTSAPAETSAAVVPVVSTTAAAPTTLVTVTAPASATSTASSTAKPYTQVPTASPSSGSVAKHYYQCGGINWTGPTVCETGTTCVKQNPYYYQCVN
Experiment: isothermal titration calorimetry
Settings: 20 mM Tris-HCl pH 7.5, 50 mM NaCl; 25 °C; multi-site binding model; unit not given

Ka: 2.3E4
Compound: OC[C@H]1O[C@@H](O[C@H]2[C@H](O)[C@@H](O)[C@H](O[C@H]3[C@H](O)[C@@H](O)[C@H](O[C@H]4[C@H](O)[C@@H](O)[C@H](O[C@H]5[C@H](O)[C@@H](O)C(O)O[C@@H]5CO)O[C@@H]4CO)O[C@@H]3CO)O[C@@H]2CO)[C@H](O)[C@@H](O)[C@@H]1O (stereo partly shown) [cellopentose]
